Here are results for 1 compound from patent US20240216476A1, “COMBINATION OF BITTER RECEPTOR AGONIST AND GUT-SIGNALING COMPOUND” (AARDVARK THERAPEUTICS, INC., priority 2021, published 2024).

Read-outs that look alike come from different tables or passages of the source. Marks after values point to notes of the source that are not given here.

Data set [1] has as its system high-fat diet-induced obese (DIO) mice. The data set is classed as in vivo. Particulars: in words; for high-density lipoprotein (HDL) levels: vs vehicle controls. On the procedure:
This Example provides the results from an in vivo study of denatonium acetate and sitagliptin in high-fat diet-induced obese (DIO) mice. C57BL/6NTac mice (at least 12 weeks of age) were fed with a high fat diet. All mice were dosed orally by gavage as (a) Vehicle group (N=15) dosed with distilled water BID, (b) DA group (N=15) dosed at 75 mg/kg (denatonium weight) BID; (c) sitagliptin group (N=15) dosed by gavage with 10 mg/kg QD; and (d) DA+ sitagliptin group (N=15) treated with DA at 75 mg/kg (denatonium based weight) BID and sitagliptin at 10 mg/kg by gavage QD. The groups were dosed for 8 weeks followed by a 5-7 day […] period. Body weight and body weight changes were measured three times per week. Serum biomarker levels for blood glucose (after fasting 6-8 hours), blood insulin, percentage of blood HvA1c, HDL, LDL, total triglycerides (TG), total cholesterol (TC) and bile acid were measured twice during the study at day 28 and at the end (day 56) of the study. Cumulative food intake and water consumption for each animal was measured.

For data set [2] the following is noted: cited from earlier work; for Effect on Body Weight (placebo-adjusted change from baseline) / Effect on HbA1c (placebo-adjusted change from baseline) / Effect on Body Weight (placebo-adjusted change from baseline), percent: QD 24-26 weeks.
The test system of data set [3] is ob/ob mice. Particulars: sitagliptin 0.0018% in diet 12 weeks; alogliptin 42.2 mg/kg/day 28 days; cited from earlier work.
Data set [4] relates to C57Bl/6J mice fed with high-fat diet. Particulars: sitagliptin 0.004% in diet 12 weeks; vildagliptin 30 mg/kg/day 7 weeks; alogliptin 0.03% (wt/wt) in diet for life span; cited from earlier work.
For data set [5] the following is noted: 18 weeks, on metformin; saxagliptin 5 mg daily; sitagliptin 100 mg; cited from earlier work.
The conditions of data set [6]: in words; cited from earlier work.
Where [7] appears, read: semaglutide 3 mg, sitagliptin 100 mg, saxagliptin 2.5 mg, vildagliptin 50 mg, alogliptin 12.5 mg, linagliptin 5 mg.
Setting [8] is: semaglutide 7 mg, sitagliptin 200 mg, saxagliptin 5 mg, vildagliptin 100 mg, alogliptin 25 mg.
Where [9] appears, read: sitagliptin alone or in combination compared with controls, meta-analysis results.

Take `N[C@@H](CC(=O)N1CCn2c(nnc2C(F)(F)F)C1)Cc1cc(F)c(F)cc1F` [Sitagliptin, (2R)-4-oxo-4-[3-(trifluoromethyl)-5,6-dihydro[1,2,4]triazolo[4,3-a]pyrazin-7(8H)-yl]-1-(2,4,5-trifluorophenyl)butan-2-amine]: in data set [1] (FIG. 22A), the “high-density lipoprotein (HDL) levels” value is reported as “significantly decreased high-density lipoprotein (HDL) levels”. Besides, the “high-density lipoprotein (HDL) levels” value in data set [1] (day 56 (FIG. 22B)) is listed as “significantly decreased high-density lipoprotein (HDL) levels”. Moreover, the weight loss entry in data set [1] (56-day study summary) is listed as “no weight loss effect was seen with longer duration dosing”. Besides, the “effect on body weight (relative body weight percentage and relative body weight change)” value in data set [1] (DA 75 mg/kg BID, sitagliptin 10 mg/kg QD by gavage, 8 weeks) was “least effect on body weight”. Moreover, in data set [2] (setting [7]), the “Effect on Body Weight (placebo-adjusted change from baseline)” value was 100 mg: +0.9 kg and the “Effect on HbA1c (placebo-adjusted change from baseline)” value is 100 mg: −0.79%. Also, the “Effect on Body Weight (placebo-adjusted change from baseline), percent” value in data set [2] (semaglutide 3 mg, sitagliptin 100 mg, saxagliptin 2.5 mg, vildagliptin 50 mg) is on record as “(+1.1%)”. Moreover, in data set [2] (setting [8]), the “Effect on Body Weight (placebo-adjusted change from baseline)” value is given as 200 mg: +1.0 kg and the “Effect on HbA1c (placebo-adjusted change from baseline)” value is 200 mg: −0.94%. Besides, in data set [2] (semaglutide 7 mg, sitagliptin 200 mg, saxagliptin 5 mg, vildagliptin 100 mg), the “Effect on Body Weight (placebo-adjusted change from baseline), percent” value is listed as “(+1.2%)”. Moreover, in data set [2] (setting [9]), the “HDL-C, weighted mean difference (WMD)” value is listed as 0.05 mmol/L) ^$$$ and the “serum TG, weighted mean difference [WMD]” value was “[WMD] −0.24 mmol/L”. In addition, in data set [3], the “Control-adjusted Percent Change in Fasting Blood Glucose” value is recorded as −23.4%*, the “Control-adjusted Percent Change in Insulin Level” value is “+148%*” and the “Control-adjusted Percent Change in TG Level” value was −43.2%*. Besides, in data set [4], the “Control-adjusted Percent Change in Body Weight Gain” value was −45.8%*, the “Control-adjusted Percent Change in Fasting Blood Glucose” value is −20.9%* and the “Control-adjusted Percent Change in Insulin Level” value was −41.7%. Further, in data set [5], the “reductions in hemoglobin A1c (HbA1c)” value is −0.26%. Also, the excretion and metabolism entry in data set [6] is “renally excreted with minimal liver metabolism (via CYP3A4 and CYP2C8)”.
